The text below walks through data of PMC2894482 (Journal of medicinal chemistry, 2009).

In series [1] the test system is cocaine self-administration. To be noted: cited from earlier work.
For series [2], the target named is T1, mGluR5 (Rattus norvegicus, UniProt P31424). In kind it is binding. To be noted: alkyne 11 vs similarly substituted amide 34.
The test system of another series is rats. Kind of series: Preliminary in vivo testing in rats. To be noted: personal communication with Dr. S. Barak Caine.
For series [3], the target named is T1, mGluR5. The series is described as follows: mGluR5 radioligand binding with [3H]1, rat brain membranes.
A further series addresses rat mGluR5 (Rattus norvegicus, UniProt P31424). Kind of series: Calcium fluorescence assay. The series is classed as cell-based.

T1 sequence (P31424 21-1203): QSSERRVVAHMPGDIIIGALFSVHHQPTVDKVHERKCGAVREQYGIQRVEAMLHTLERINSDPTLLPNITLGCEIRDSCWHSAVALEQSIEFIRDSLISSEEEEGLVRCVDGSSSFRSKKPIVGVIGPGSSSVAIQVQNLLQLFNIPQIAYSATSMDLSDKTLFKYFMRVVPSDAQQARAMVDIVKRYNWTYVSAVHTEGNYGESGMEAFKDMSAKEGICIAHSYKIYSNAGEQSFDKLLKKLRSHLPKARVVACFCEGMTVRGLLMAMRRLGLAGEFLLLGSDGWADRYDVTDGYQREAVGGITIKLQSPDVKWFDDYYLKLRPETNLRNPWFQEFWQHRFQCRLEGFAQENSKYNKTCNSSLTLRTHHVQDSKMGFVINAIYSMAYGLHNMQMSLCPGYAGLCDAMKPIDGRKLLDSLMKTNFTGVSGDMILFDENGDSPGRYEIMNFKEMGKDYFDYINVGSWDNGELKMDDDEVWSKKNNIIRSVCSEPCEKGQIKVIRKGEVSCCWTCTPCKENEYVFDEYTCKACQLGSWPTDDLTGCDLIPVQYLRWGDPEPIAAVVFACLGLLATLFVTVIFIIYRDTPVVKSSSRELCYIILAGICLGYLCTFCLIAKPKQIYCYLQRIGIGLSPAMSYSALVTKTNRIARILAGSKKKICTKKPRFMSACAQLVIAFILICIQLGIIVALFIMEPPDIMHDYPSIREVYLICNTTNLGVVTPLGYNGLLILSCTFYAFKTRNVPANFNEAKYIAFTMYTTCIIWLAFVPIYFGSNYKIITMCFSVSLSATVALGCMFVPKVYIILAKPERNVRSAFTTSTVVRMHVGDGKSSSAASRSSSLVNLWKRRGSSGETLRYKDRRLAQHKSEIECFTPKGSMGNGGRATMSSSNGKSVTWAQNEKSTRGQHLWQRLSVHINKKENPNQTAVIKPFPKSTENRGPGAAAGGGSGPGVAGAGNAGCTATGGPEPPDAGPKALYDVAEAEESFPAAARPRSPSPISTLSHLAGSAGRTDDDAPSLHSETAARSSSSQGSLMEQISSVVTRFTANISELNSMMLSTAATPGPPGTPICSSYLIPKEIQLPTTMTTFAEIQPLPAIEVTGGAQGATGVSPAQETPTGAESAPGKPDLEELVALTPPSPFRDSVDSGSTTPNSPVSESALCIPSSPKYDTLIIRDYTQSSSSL
Chain of rat mGluR5 (P31424 21-1203): as above

With `Cc1cccc(C#Cc2ccccc2)n1` [Compound 1, 2-methyl-6-(phenylethynyl)pyridine], the “effect on cocaine self-administration” value in series [1] is “dose-dependently decreases”. The “effect on food intake” value in series [1] (identical schedules of reinforcement) is “no effect”.

On to `Cc1nc(C#Cc2cc(F)cc(C#N)c2)cs1` [Compound 11, 3-Fluoro-5-cyano-1-(2-methylthiazol-4-ylethynyl)benzene], for which the “fold higher affinity at mGluR5 than the amide” value on mGluR5 [2] was more than 70 fold. Moreover, the “toxicity in preliminary in vivo testing” value in the series on rats is “showed toxicity”.

As a reminder, the Ki is the equilibrium dissociation constant of an inhibitor or competing ligand from its target. The low end stands for tighter binding, the high end for weaker binding. In general, IC50 refers to the point on the concentration scale where inhibition reaches its midpoint. For the compound `Cc1cccc(C#Cc2ccc(-c3ccccc3)c(C#N)c2)n1` [Compound 21, 2-Phenyl-5-(6-methylpyridin-2-ylethynyl)benzonitrile], at mGluR5 [3], the Ki amounted to 4 ± 0.6 nM. Further, the IC50 at rat mGluR5 was determined as 3.08 ± 0.61 nM.

On mGluR5 [3], `Cc1cccc(C#Cc2ccc(-c3cccc(F)c3)c(C#N)c2)n1` [Compound 22, 2-(3-Fluorophenyl)-5-(6-methylpyridin-2-ylethynyl)benzonitrile] gave a Ki of 17 ± 2.2 nM. Besides, on rat mGluR5, the IC50 stood at 6.1 ± 1.95 nM.
